Test results reported in patent publication US5990146A, “Benzimidazoles for inhibiting protein tyrosine kinase mediated cellular proliferation” (Warner-Lambert Company, priority 1998, dated 1999).
Where a name gives a salt, the structure may show the parent alone.

Columns and labels:
[1] = target: T1, PDGF receptor tyrosine kinase (mouse PDGF-β) (Mus musculus, UniProt P05622); experiment: PDGFr tyrosine kinase assay (poly glutamate-tyrosine phosphorylation); type: biochemical; details: Table 1; 10 minutes at 25° C.
T1 construct: PCR primers are designed to amplify a fragment of DNA that codes for the intracellular tyrosine kinase domain; made in house; host or cells: Sf9 insect cells (baculovirus), cell lysate
T1 sequence (P05622 599-961 limits assumed): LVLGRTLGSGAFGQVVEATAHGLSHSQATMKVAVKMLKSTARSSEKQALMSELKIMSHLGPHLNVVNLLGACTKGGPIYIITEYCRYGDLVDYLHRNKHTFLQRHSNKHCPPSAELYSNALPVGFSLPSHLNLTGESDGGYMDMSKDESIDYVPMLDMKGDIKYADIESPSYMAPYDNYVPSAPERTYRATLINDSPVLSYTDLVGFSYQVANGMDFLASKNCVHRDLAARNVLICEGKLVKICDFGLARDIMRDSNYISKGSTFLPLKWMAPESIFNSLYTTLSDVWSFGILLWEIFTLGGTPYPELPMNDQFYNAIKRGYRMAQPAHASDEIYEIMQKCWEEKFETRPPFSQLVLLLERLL
Procedure: Platelet Derived Growth Factor Receptor (PDGFr) and Fibroblast Growth Factor Receptor (FGFr)
Full length cDNAs for the mouse PDGF-β and human FGF-1 (flg) receptor tyrosine kinases were obtained from J. Escobedo and are prepared as described in J. Biol. Chem., 262: 1482-1487 (1991). PCR primers are designed to amplify a fragment of DNA that codes for the intracellular tyrosine kinase domain. The fragment is melded into a baculovirus vector, cotransfected with AcMNPV DNA, and the recombinant virus isolated. SF9 insect cells are infected with the virus to overexpress the protein, and the cell lysate is used for the assay.
The assay is performed in 96-well plates (100 μL/incubation/well), and conditions are optimized to measure the incorporation of ^32 p from [γ^32 P]-ATP into a glutamate-tyrosine copolymer substrate. Briefly, to each well is added 82.5 μL of incubation buffer containing 25 mM Hepes (pH 7.0), 150 mM NaCl, 0.1% Triton X-100, 0.2 mM PMSF, 0.2 mM sodium vanadate, 10 mM manganese chloride, and 750 μg/mL of poly (4:1) glutamate-tyrosine followed by 2.5 μL of inhibitor and 5 μL of enzyme lysate (7.5 μg/μL FGFR-TK or 6.0 μg/μL PDGFR-TK) to initiate the reaction. Following a 10 minute incubation at 25° C., 10 μL of [γ^32 P]-ATP (0.4 μCi plus 50 μM ATP) is added to each well and samples are incubated for an additional 10 minutes at 25° C. The reaction is terminated by the addition of 100 μL of 30% trichloroacetic acid (TCA) containing 20 mM sodium pyrophosphate and precipitation of material onto glass fiber filter mats (Wallac). Filters are washed 3 times with 15% TCA containing 100 mM sodium pyrophosphate and the radioactivity retained on the filters counted in a Wallac 1250 Betaplate reader. Nonspecific activity is defined as radioactivity retained on the filters following incubation of samples with buffer alone (no enzyme). Specific enzymatic activity is defined as total activity (enzyme plus buffer) minus nonspecific activity.

[2] = system: PDGF receptor autophosphorylation in rat aorta smooth muscle cells; experiment: PDGF Receptor Autophosphorylation Assay in rat aorta smooth muscle cells; type: cell-based; details: Table 2, PDGF-BB 30 ng/mL, 2 hours pre-incubation, read-out: IC50, inhibition of PDGF-stimulated receptor autophosphorylation
Procedure: Rat aorta smooth muscle cells (RASMC) are isolated from the thoracic aorta of rats and explanted according to the method of Ross, J. Cell. […] Cells are grown in Dulbecco's modified Eagle's medium (DMEM, Gibco) containing 10% fetal calf serum (FBS, Hyclone, Logan, Utah), 1% glutamine (Gibco) and 1% penicillin/streptomycin (Gibco). Cells are identified as smooth muscle cells by their "hill and valley" growth pattern and by fluorescent staining with a monoclonal antibody specific for SMC μ-actin (Sigma). RASMC are used between passages 5 and 20 for all experiments. Test compounds are prepared in dimethylsulfoxide (DMSO) in order to achieve consistency in the vehicle and to ensure compound solubility. Appropriate DMSO controls are simultaneously evaluated with the test compounds.
Rat aortic smooth muscle cells are grown to confluencey in 100 mm dishes. Growth medium is removed and replaced with serum-free medium and cells are incubated at 37° C. for an additional 24 hours. Test compounds are then added directly to the medium and cells incubated for an additional 2 hours. After 2 hours PDGF-BB is added at a final concentration of 30 ng/mL for 5 minutes at 37° C. to stimulate autophosphorylation of PDGF receptors. Following growth factor treatment, the medium is removed, and cells are washed with cold phosphate-buffered saline and immediately lysed with 1 mL of lysis buffer (50 mM Hepes, pH 7.5, 150 mM NaCl, 10% glycerol, 1% Triton-X 100, 1 mM EDTA, 1 mM EGTA, 50 mM NaF, 1 mM sodium orthovanadate, 30 mM p-nitrophenyl phosphate, 10 mM sodium pyrophosphate, 1 mM phenylmethyl sulfonyl fluoride, 10 μg/mL aprotinin and 10 μg/mL leupeptin). Lysates are centrifuged at 10,000 ×g for 10 minutes. […] Following the incubation, protein-A-sepharose beads are added for 2 hours with continuous mixing, and immune complexes bound to the beads washed 4 times with 1 mL lysis wash buffer. Immune complexes are solubilized in 40 μL of Laemmli sample buffer and electrophoresed in 8-16% SDS polyacrylamide gels. Following electrophoresis, separated proteins are transferred to nitrocellulose and immunoblotted with a 1:1000 dilution of antiphosphotyrosine monoclonal antibody (UBI clone 4G10; #05-321). Following extensive washing with PBS-0.2% tween-20, the blots are incubated with horseradish peroxidase labeled goat antimouse IgG (1:5000; Bio-Rad Inc, Hercules, Calif.) and protein levels are detected by enhanced chemiluminescence (ECL) detection system according to the instructions of the supplier (Amersham Inc, Arlington Heights, Ill.). The density of the protein bands are determined using NIH Image software (v. 1.56) and IC50 values are generated from the densitometric data.

[3] = target: T2, Human EGF receptor tyrosine kinase (Homo sapiens, UniProt P00533); experiment: EGFr tyrosine kinase assay; type: biochemical; details: Table 1; 10 μM ATP, 25° C., 10 minutes
T2 construct: Human EGF receptor tyrosine kinase is isolated from A431 human epidermoid carcinoma cells; endogenous in cells; host or cells: A431 human epidermoid carcinoma cells (detergent lysate, fast Q sepharose fractions)
T2 sequence (P00533 25-1210): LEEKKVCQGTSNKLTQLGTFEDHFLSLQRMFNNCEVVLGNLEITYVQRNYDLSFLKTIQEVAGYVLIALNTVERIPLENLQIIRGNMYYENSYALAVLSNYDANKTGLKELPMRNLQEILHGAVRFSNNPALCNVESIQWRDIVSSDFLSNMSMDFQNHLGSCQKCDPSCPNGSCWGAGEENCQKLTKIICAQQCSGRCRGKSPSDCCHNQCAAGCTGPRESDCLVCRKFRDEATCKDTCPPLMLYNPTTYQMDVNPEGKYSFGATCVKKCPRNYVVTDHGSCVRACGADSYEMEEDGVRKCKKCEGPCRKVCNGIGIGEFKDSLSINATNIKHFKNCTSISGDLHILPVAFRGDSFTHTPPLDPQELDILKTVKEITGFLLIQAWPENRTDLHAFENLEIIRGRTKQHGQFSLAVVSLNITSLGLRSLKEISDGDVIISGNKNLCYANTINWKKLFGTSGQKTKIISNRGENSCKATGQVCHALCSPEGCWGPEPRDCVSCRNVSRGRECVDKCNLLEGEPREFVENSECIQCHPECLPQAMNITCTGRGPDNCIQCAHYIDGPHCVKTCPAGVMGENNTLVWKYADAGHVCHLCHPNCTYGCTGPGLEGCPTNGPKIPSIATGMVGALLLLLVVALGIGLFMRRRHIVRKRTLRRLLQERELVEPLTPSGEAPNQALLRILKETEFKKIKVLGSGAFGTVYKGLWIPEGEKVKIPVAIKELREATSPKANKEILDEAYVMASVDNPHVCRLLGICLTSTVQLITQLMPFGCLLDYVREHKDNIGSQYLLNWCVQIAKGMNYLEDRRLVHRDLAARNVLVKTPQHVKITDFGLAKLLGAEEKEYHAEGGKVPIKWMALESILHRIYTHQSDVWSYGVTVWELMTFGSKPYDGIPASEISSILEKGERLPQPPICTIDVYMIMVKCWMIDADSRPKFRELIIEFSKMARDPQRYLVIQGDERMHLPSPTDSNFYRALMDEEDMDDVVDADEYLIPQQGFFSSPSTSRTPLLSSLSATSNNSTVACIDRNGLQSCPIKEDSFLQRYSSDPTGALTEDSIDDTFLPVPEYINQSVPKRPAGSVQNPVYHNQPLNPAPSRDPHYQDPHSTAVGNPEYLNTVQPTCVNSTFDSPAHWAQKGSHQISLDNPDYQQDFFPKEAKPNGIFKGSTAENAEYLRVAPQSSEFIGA

insulin receptor (INSr) = target: T3, insulin receptor (INSr) (Homo sapiens, UniProt P06213); experiment: Insulin receptor kinase assay; type: biochemical; details: Table 1; as for EGF receptor with 10 mM manganese chloride
T3 construct: An assay using the intracellular kinase domains of insulin receptor (INSr) is performed
T3 sequence (P06213 1023-1298 limits assumed, species assumed): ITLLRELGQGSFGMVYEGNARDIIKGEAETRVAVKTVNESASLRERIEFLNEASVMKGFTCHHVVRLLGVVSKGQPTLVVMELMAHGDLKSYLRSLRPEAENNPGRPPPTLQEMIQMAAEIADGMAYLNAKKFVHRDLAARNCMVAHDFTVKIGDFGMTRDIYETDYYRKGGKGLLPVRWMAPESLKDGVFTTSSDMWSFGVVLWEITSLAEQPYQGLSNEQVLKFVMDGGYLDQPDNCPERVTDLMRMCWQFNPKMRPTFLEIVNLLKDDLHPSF

SW-620 cells [4] = experiment: Human Colon Carcinoma Growth Delay Assay; type: cell-based; details: 72 h, Table 3, SW-620, 3 days
Procedure: Human Colon Carcinoma Growth Delay Assay Human colon carcinoma cells are seeded into 96-well tissue culture plates in a final volume of 180 μL of 10% fetal bovine serum containing growth media and allowed to incubate overnight (37° C., 5% CO2, 95% air). Cells of the SW620 cell line are seeded at 1.0-1.5×10^4 cells per well. Cells of the HCT8 and HT29 cell lines are seeded at 2-4×10^3 cells per well. […] At the end of the incubation period, cells are fixed with 100 μL per well of 10% trichloroacetic acid after removing the drug/culture medium. The plates are washed 5 times with tap water and stained with 100 μL per well of 0.075% sulforhodamine B in 1% acetic acid for 10 minutes. The plates are rinsed 4 times and allowed to air dry. The stain in the wells are solubilized by the addition of 10 mM unbuffered Tris base and the absorbance read using a microtiter plate optical reader. Inhibition of cell growth is calculated from absorbance data of the treated cells compared to untreated control cells. Table 3 provides data for inhibition of growth in human adenocarcinoma cell lines.

SW-620 cells [5] = experiment: Human Colon Carcinoma Clonogenic Assay; type: cell-based
Procedure: SW620 cells are seeded at 7×10^5 per well; HCT8 cells are seeded at 5×10^5 per well; HT29 cells are seeded at 4×10^5 cells per well. Serially diluted drugs are prepared at 200 ×the final concentration and 15 μL are added to each of duplicate wells. Cells are incubated with drug for 2 days, rinsed once with 1 mL of trypsin+EDTA, and then trypsinized with the same trypsin solution. […] One milliliter of each of these cell suspensions is added to duplicate wells of 6 well plates previously prepared with 10% serum/growth medium/ 1% agarose plugs. The cells in these plates are incubated for approximately 2 weeks in the incubator and stained with 1 mL per well of 1 mg/mL iodonitrotetrazolium violet stain. The visible colonies are counted with an electronic optical colony counter and the clonogenicity of treated cells calculated in comparison to untreated control cells.

[6] = target: T4, FGF receptor tyrosine kinase (human FGF-1 (flg)) (Homo sapiens, UniProt P11362); experiment: FGFr tyrosine kinase assay (poly glutamate-tyrosine phosphorylation); type: biochemical; details: Table 1; 10 minutes at 25° C.
T4 construct: PCR primers are designed to amplify a fragment of DNA that codes for the intracellular tyrosine kinase domain; made in house; host or cells: Sf9 insect cells (baculovirus), cell lysate
T4 sequence (P11362 478-767 limits assumed): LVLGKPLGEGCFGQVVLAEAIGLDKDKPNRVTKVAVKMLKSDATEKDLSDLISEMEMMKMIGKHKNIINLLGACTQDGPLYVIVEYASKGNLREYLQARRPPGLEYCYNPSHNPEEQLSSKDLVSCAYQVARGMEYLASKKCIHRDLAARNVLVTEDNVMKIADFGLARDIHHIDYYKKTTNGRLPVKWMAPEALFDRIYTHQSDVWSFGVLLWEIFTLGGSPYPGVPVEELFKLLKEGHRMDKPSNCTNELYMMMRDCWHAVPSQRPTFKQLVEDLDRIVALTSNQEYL
Procedure: Platelet Derived Growth Factor Receptor (PDGFr) and Fibroblast Growth Factor Receptor (FGFr) Full length cDNAs for the mouse PDGF-β and human FGF-1 (flg) receptor tyrosine kinases were obtained from J. Escobedo and are prepared as described in J. Biol. Chem., 262: 1482-1487 (1991). PCR primers are designed to amplify a fragment of DNA that codes for the intracellular tyrosine kinase domain. The fragment is […] into a baculovirus vector, cotransfected with AcMNPV DNA, and the recombinant virus isolated. SF9 insect cells are infected with the virus to overexpress the protein, and the cell lysate is used for the […] and FGFr The assay is performed in 96-well plates (100 μL/incubation/well), and conditions are optimized to measure the incorporation of ^32 p from [γ^32 P]-ATP into a glutamate-tyrosine copolymer substrate. […] The reaction is terminated by the addition of 100 μL of 30% trichloroacetic acid (TCA) containing 20 mM sodium pyrophosphate and precipitation of material onto glass fiber filter mats (Wallac). Filters are washed 3 times with 15% TCA containing 100 mM sodium pyrophosphate and the radioactivity retained on the filters counted in a Wallac 1250 Betaplate reader. Nonspecific activity is defined as radioactivity retained on the filters following incubation of samples with buffer alone (no enzyme). Specific enzymatic activity is defined as total activity (enzyme plus buffer) minus nonspecific activity.

[7] = target: MAP Kinase Pathway (GST-MEK / GST-MAPK); experiment: Cascade Assay for Inhibitors of the MAP Kinase Pathway (APK Assay); type: biochemical; details: Table 1; 50 μM ATP, 20 minutes
Procedure: Cascade Assay for Inhibitors of the MAP Kinase Pathway (APK Assay) Incorporation of ^32 P into myelin basic protein (MBP) is assayed in the presence of a glutathione S-transferase fusion protein containing p44MAP kinase (GST-MAPK) and a glutathione S-transferase fusion protein containing p45MEK (GST-MEK). […] Reactions are stopped after 20 minutes by addition of trichloroacetic acid and filtered through a GF/C filter mat. ^32 P retained on the filter mat is determined using a 1205 betaplate. […] To ascertain whether compounds are inhibiting GST-MEK or GST MAPK, two additional protocols are employed. In the first protocol, compounds are added to tubes containing GST MEK, followed by addition of GST-MAPK, MBP and [γ^32 P]ATP. In the second protocol, compounds are added to tubes containing both GST-MEK and GST-MAPK, followed by MBP and [γ^32 P]ATP. Compounds that show activity in both protocols are scored as […], while compounds showing activity in only the first protocol are scored as MEK inhibitors.

Protein kinase C (PKC) = experiment: PKC assay; type: biochemical; details: Table 1; rat brain preparation
Procedure: Protein kinase C (PKC) is obtained as a rat brain preparation from Promega.
The PKC assay is performed as previously described by Martiny-Baron, et al., J. Biol. Chem. 268: 9194-9197 (1993).

c-Src = target: T5, c-Src (Homo sapiens, UniProt P12931); experiment: c-Src kinase assay; type: biochemical; details: Table 1; 5 μM ATP, room temperature, 10 minutes
T5 construct: made in house; host or cells: baculovirus infected insect cells
T5 sequence (P12931 whole entry, species assumed): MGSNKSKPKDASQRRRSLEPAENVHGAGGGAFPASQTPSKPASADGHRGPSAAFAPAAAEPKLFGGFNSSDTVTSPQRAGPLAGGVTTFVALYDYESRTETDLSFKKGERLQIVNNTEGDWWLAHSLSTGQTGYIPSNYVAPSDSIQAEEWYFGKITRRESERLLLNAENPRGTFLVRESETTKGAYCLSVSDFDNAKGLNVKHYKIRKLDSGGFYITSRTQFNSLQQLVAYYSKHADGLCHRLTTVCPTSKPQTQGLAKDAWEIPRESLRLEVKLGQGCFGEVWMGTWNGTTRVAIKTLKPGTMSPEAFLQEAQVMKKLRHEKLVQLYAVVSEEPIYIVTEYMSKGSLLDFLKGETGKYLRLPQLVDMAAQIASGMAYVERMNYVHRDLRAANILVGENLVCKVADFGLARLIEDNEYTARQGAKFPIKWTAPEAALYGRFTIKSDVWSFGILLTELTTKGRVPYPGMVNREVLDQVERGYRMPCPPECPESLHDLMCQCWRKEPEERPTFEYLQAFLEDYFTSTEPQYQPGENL
Procedure: c-Src kinase is purified from baculovirus infected insect cell lysates using an antipeptide monoclonal antibody directed against the N-terminal 2-17 amino acids as described previously by Fry, et al, Anticancer Drug Design. 9: 331-351 (1994). […] At the end of the lysate incubation, the beads are rinsed 3 times in lysis buffer, resuspended in lysis buffer containing 10% glycerol, and frozen. These latex beads are thawed, rinsed 3 times in assay buffer which is comprised of 40 mM tris pH 7.5, 5 mM magnesium chloride, and suspended in the same buffer. […] The reaction is started at room temperature by addition of the ATP and quenched 10 minutes later by the addition of 125 μL of 30% TCA, 0.1 M sodium pyrophosphate for 15 minutes on ice. The plate is then filtered and the wells washed with two 250-μL aliquots of 15% TCA, 0.1 M pyrophosphate. The filters are punched, counted in a liquid scintillation counter, and the data examined for inhibitory activity in comparison to a known inhibitor such as erbstatin. The method is described more fully in J. Med. Chem., 37: 598-609 (1994).

[8] = Table 3, SW-620, 2 days drug exposure, approximately 2 weeks colony growth, read-out: SW-620 Clonogenic IC50

| IC50 [1] [µM] | IC50 [2] [µM] | IC50 [3] [µM] | IC50 (insulin receptor (INSr)) [µM] | IC50 [6] [µM] | IC50 [7] [µM] | IC50 (Protein kinase C (PKC)) [µM] | IC50 (c-Src) [µM] | SMILES | IC50 (SW-620 cells [4]) [µM] | IC50 (SW-620 cells [5]; SW-620, read-out: SW-620 Clonogenic IC50) [µM] | IC50 (SW-620 cells [5]; [8]) [µM] |
| --- | --- | --- | --- | --- | --- | --- | --- | --- | --- | --- | --- |
| 5.6 | > 10 | – | – | – | – | – | – | Nc1ccc(-n2cnc3ccccc32)cc1 [Example 8, 1-(4-Aminophenyl)benzimidazole Dihydrochloride] | – | – | – |
| 8.4 | – | < 50 | > 50 | 50 | – | – | 50 | O=Cc1ccc2c(c1)ncn2-c1ccccc1 [Example 21, 1-Phenylbenzimidazole-5-carboxaldehyde] | – | – | – |
| 11.7 | – | < 50 | > 50 | > 50 | – | – | > 50 | OCc1ccc2c(c1)ncn2-c1ccccc1 [Example 26, 5-(Hydroxymethyl)-1-phenylbenzimidazole] | – | – | – |
| 0.2 | – | > 40 | > 50 | 4.1 | 27 | > 50 | 14 | CN(C)CCCOc1ccc2c(c1)ncn2-c1ccccc1 [Example 37, 5-[3--(N,N-Dimethylamino)propoxyl]-1-phenylbenzimidazole Dihydrochloride] | – | – | – |
| 0.7 | 0.7 | > 40 | > 50 | 28 | 45 | > 50 | > 50 | c1ccc(-n2cnc3cc(OCCN4CCOCC4)ccc32)cc1 [Example 38, 5-[2-(4-Morpholino)ethoxy]-1-phenylbenzimidazole Dihydrochloride] | – | – | – |
| 0.2 | – | > 40 | > 50 | 9.8 | 18 | > 50 | > 50 | c1ccc(-n2cnc3cc(OCCCN4CCOCC4)ccc32)cc1 [Example 39, 5-[3-(4-Morpholino)propoxy]-1-phenylbenzimidazole Dihydrochloride] | – | – | – |
| 6.4 | > 10 | – | – | – | – | – | – | COc1ccc2ncn(-c3ccccc3)c2c1 [Example 40, 6-Methoxy-1-phenylbenzimidazole] | – | – | – |
| 0.3 | 3.5 | < 40 | > 50 | 18 | 37 | > 50 | > 50 | COc1ccc2c(c1)ncn2-c1ccc(N)cc1 [Example 45, 1-(4-Aminophenyl)-5-methoxybenzimidazole Dihydrochloride] | – | – | – |

| SMILES | IC50 [1] [µM] | IC50 [2] [µM] | IC50 [3] [µM] | IC50 (insulin receptor (INSr)) [µM] | IC50 [6] [µM] | IC50 [7] [µM] | IC50 (Protein kinase C (PKC)) [µM] | IC50 (c-Src) [µM] | IC50 (SW-620 cells [4]) [µM] | IC50 (SW-620 cells [5]; SW-620, read-out: SW-620 Clonogenic IC50) [µM] | IC50 (SW-620 cells [5]; [8]) [µM] |
| --- | --- | --- | --- | --- | --- | --- | --- | --- | --- | --- | --- |
| Oc1cccc2c1ncn2-c1ccccc1 [Example 11, 4-Hydroxy-1-phenylbenzimidazole Hydrochloride] | 10.6 | > 10 | > 50 | > 50 | – | – | – | – | > 25 | > 5 | 2.1 |
| COc1ccc2c(c1)ncn2-c1ccccc1 [Example 13, 5-Methoxy-1-phenylbenzimidazole Hydrochloride] | 0.4 | 2 | < 50 | > 50 | 22 | 5 | > 50 | – | > 25 | – | > 5 |
| CC(=O)Oc1ccc2c(c1)ncn2-c1ccccc1 [Example 27, 5-Acetoxy-1-phenylbenzimidazole] | 1.8 | – | > 50 | > 50 | 26 | – | – | > 50 | – | – | – |
| c1ccc(-n2cnc3cc(OCCCCN4CCOCC4)ccc32)cc1 [Example 59, 5-[4-(4-Morpholino)butoxy]-1]phenylbenzimidazole Dihydrochloride] | 0.3 | 2.2 | – | – | 12 | – | – | 25 | > 25 | – | > 25 |
